Laboratory results as given in article PMC11116102, “A naturally occurring variant of SHLP2 is a protective factor in Parkinson’s disease” (Molecular Psychiatry, 2024).
No end group written: not given here.

How the values were obtained:
[1] = system: HeLa expressing HA- EGFP- OMP25 (HA-MITO); assay: Rapid mitochondria immunoprecipitation, localization of synthetic SHLP2; format: cell-based; settings: synthetic SHLP2 treatment, western blot
Protocol: Mitochondria isolation from HeLa cells expressing HA-EGFP-OMP25 (HA-MITO) or myc-EGFP-OMP25 (CON-MITO) was performed according to the published article. Briefly, cells were lysed in KPBS buffer (136 mM KCl, 10 mM KH2PO4, pH 7.25) and homogenized with 25 strokes of a 2 ml homogenizer. The homogenate was spun down at 1000 g for 2 min. The supernatant was incubated with anti-HA magnetic beads on an end-over-end rotator for 3.5 min. The beads were washed with KPBS buffer, incubated for 10 min with lysis buffer (1% triton X-100 lysis buffer with protease inhibitor cocktail), and spun down at 17000 g for 10 min. The supernatants were used for western blot.

HEK293 cells = assay: Cycloheximide pulse-chase protein stability; format: cell-based; settings: HEK293 transiently transfected with C-terminal EGFP-tagged construct; 100ug/ml cycloheximide for the indicated time; western blot, Image J; n = 3/per group
Protocol: Cells were lysed with RIPA Lysis and Extraction Buffer (ThermoFisher Scientific) plus the Halt protease & phosphatase inhibitor cocktail (ThermoFisher Scientific). The lysates were incubated on ice for 10 min then homogenized using a sonicator, and the supernatant was collected by centrifugation at 15,000 x g for 15 min at 4 °C. Protein content in the cellular lysates was quantified using the Pierce™ BCA Protein Assay Kit (ThermoFisher Scientific). Predetermined amounts of proteins (10-30μg) were separated on 8-16% SDS-PAGE gels and blotted onto PVDF membranes (Biorad, Hercules, CA, USA). Membranes were incubated with primary antibody at 4 °C overnight according to the manufacturer’s instructions. After several washes with Tris-buffered saline containing 0.1% Tween-20, membranes were incubated at room temperature for 1 hr with the appropriate HRP-conjugated secondary antibody. Clarity™ Western ECL substrate (Biorad) was used for detecting specific bands. Membranes were imaged on a Bio-Rad ChemiDoc XRS^+ imager. If necessary, relative intensities of the bands in each condition were measured using Image J, a free software program provided by National Institute of Health (Bethesda, Maryland, USA).
Cycloheximide, an inhibitor of protein biosynthesis, was used to examine protein stability in cells. […] The protein quantity from western blot was examined with Image J.

[2] = system: dopamine levels in the striatum; assay: Striatal dopamine in MPTP-lesioned mice (HPLC with electrochemical detection); format: in vivo; settings: C57BL/6 mice, MPTP 20 mg/kg, n = 8 per group
Protocol: C57BL/6 male mice, 8 to 10 weeks of age were purchased from Jackson Labs (Bar Harbor, Maine). 1-methyl-4- phenyl- 1,2,3,6-tetrahydropyridine (MPTP) (Selleck Chemicals Co., Houston, TX) was prepared to a concentration of […] free-base in 0.9% saline on the day of use. C57BL/6 mice were injected with 20 mg/kg free-base MPTP. 8 days after the last injection of MPTP, mice were killed by cervical dislocation and the brain quickly removed and placed on wet ice. Striatal tissues for HPLC analysis and western immunoblotting were collected fresh corresponding to anatomical regions from bregma 1.20 to bregma 0.60, with borders dorsal to the anterior commissure, ventral to the corpus callosum, medial to the lateral ventricle, and 2.5 mm lateral from midline, and frozen at -80 °C until analysis. All procedures utilizing MPTP lesioning and tissue collection were approved by the USC IACUC.
Dopamine concentrations were determined according to an adaptation of Irwin et al. from the method of Kilpatrick et al.. […] The protein pellet was resuspended in 0.5 N NaOH and the total protein concentration determined using the BCA Protein Assay (Pierce, Rockford, IL), a Biotek Model Elx800 microplate reader (Biotek Instruments, Wincoski, VT) and KCjunior software. […]

Compound: MGVKFFTLSTRFFPSVQRAVPLWTNS [WT SHLP2]
- mitochondrial localization of synthetic peptide [1]: localized in the mitochondria after 30 min of treatment

Compound: MGVRFFTLSTRFFPSVQRAVPLWTNS [K4R SHLP2]
- protein stability, pulse-chase (HEK293 cells): more stable than WT SHLP2

Compound: CN1CC=C(c2ccccc2)CC1 [MPTP, 1-methyl-4-phenyl-1,2,3,6-tetrahydropyridine]
- dopamine levels in the striatum, toxin alone [2]: significant decrease in dopamine levels
